From PMC9750858, “Rapid biosensor development using plant hormone receptors as reprogrammable scaffolds” (Nature Biotechnology, 2022)
Several values for one entry are separate records, joined by “and”; a condition that tells them apart may be missing. Equal values may be shown once.

Experiments:
[1] = target: T1, PYR1^WIN (Arabidopsis thaliana, UniProt O49686, A160I/D26G/E4G/F159A/K59Q/Y23H); test: Split NanoLuc luciferase complementation in yeast, NLuc^N-PYR1^WIN/NLuc^C-ΔN-HAB1; type: cell-based; design: >PYR1-WIN; expressed in transfected cells; host or cells: Saccharomyces cerevisiae; settings: for LUM, split luciferase luminescence (Fig. 3c source data): replicates
T1 sequence (Q9CAJ0 179-511, one chain of several): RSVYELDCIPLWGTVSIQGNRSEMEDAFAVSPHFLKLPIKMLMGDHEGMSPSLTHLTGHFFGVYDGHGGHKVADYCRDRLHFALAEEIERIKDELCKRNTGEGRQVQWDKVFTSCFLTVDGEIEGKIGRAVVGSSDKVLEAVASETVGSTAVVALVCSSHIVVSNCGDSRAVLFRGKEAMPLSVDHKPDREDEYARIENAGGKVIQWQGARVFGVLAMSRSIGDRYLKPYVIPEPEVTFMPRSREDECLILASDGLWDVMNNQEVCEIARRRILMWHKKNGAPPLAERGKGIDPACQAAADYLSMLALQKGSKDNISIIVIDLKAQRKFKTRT

[2] = target: T2, PYR1^WIN-M (Arabidopsis thaliana, UniProt O49686, A160I/D26G/E4G/F159A/H60P/K59Q/N90S/Y23H); test: ELISA-like plate assay, immobilized PYR1^WIN-M, biotinylated ΔN-HAB1^T+; type: binding; settings: for ELISA signal generation, receptor cross-reactivity (source data): replicates, 212
T2 construct: made in house
T2 sequence (O49686 with tags, fused parts or gaps E4G/Y23H/D26G/K59Q/H60P/N90S/F159A/A160I): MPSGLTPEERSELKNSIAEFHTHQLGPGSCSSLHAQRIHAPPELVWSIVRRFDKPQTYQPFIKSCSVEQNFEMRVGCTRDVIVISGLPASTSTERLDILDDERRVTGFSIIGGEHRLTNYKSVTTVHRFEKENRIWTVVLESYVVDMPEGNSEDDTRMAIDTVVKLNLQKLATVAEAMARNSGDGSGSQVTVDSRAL

[3] = test system: PYR1-derived cannabinoid receptors (PYR1 mutants) binding HAB1
[4] = target: T1, PYR1^WIN; test: Yeast transcriptional activation circuit Z4-PYR1/VP64-ΔN-HAB1, GFP reporter, PYR1^WIN; settings: for whole-cell GFP fluorescence (Fig. 3b source data): 12 h, replicates
[5] = target: T3, PYR1^WIN / ΔN-HAB1 (Arabidopsis thaliana, UniProt O49686, A160I/D26G/E4G/F159A/K59Q/Y23H); test: Ligand/receptor-mediated PP2C (ΔN-HAB1 phosphatase) inhibition, fluorogenic substrate, PYR1^WIN; type: biochemical
T3 construct: 6xHis (N); made in house; host or cells: E. coli BL21 (DE3) pLysS
T3 sequence (O49686 with tags, fused parts or gaps E4G/Y23H/D26G/K59Q/F159A/A160I): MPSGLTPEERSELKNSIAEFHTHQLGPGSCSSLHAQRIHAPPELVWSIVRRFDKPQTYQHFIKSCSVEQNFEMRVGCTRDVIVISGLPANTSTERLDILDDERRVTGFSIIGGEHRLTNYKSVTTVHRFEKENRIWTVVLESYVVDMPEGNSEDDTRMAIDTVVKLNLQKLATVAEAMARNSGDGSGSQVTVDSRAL
Description: Coding sequences of the cannabinoid sensors were cloned into the protein expression vector pET28a to encode 6×His-tag-receptor fusions. Constructs were sequenced and transformed into the BL21 (DE3) pLysS E. coli strain for heterologous expression with IPTG (1 mM), followed by purification, using affinity chromatography, as previously reported. In vitro validation of evolved sensors was performed by using recombinant sensors and ΔN-HAB1 (HAB1 Δ1–178, ref. [36]) proteins, as previously described. […] Cannabinoid concentration curves ranged from 4 to 10,000 nM, and median inhibitory concentrations for PP2C inhibition were obtained via fluorescent measurement in the presence of 1 mM 4-methylumbelliferyl phosphate.

SMILES: Cc1c(C(=O)c2cccc3ccccc23)c2cccc3c2n1C(CN1CCOCC1)CO3 (single isomer, unassigned; (+)) [WIN, (+)-WIN 55,212-2]
- EC50 [1]: 0.056 µM
- LUM, split luciferase luminescence (Fig. 3c source data) ([1]; [Ligand] 0.0001 uM): 4.094 and 3.848 and 3.642
- LUM, split luciferase luminescence (Fig. 3c source data) ([1]; [Ligand] 0.001 uM): 4.593 and 4.28 and 4.174
- LUM, split luciferase luminescence (Fig. 3c source data) ([1]; [Ligand] 0.01 uM): 5.448 and 5.829 and 5.793
- LUM, split luciferase luminescence (Fig. 3c source data) ([1]; [Ligand] 0.1 uM): 9.293 and 8.992 and 7.439
- LUM, split luciferase luminescence (Fig. 3c source data) ([1]; [Ligand] 1 uM): 12.392 and 10.463 and 10.193
- LUM, split luciferase luminescence (Fig. 3c source data) ([1]; [Ligand] 10 uM): 13.953 and 10.293 (2×)
- ELISA signal generation, receptor cross-reactivity (source data) ([2]; cannabinoid at 2 nM): 1.487 and 1.277 and 1.151
- ELISA signal generation, receptor cross-reactivity (source data) ([2]; cannabinoid at 2 μM): 3.378 and 3.384 and 3.484
- ELISA absorbance signal (source data) ([2]; saline, ligand 1e-6 uM): 0.133 and 0.126 and 0.127
- ELISA absorbance signal (source data) ([2]; saline, ligand 1e-5 uM): 0.152 and 0.136 and 0.148
- ELISA absorbance signal (source data) ([2]; saline, ligand 0.0001 uM): 0.162 and 0.157 and 0.179
- ELISA absorbance signal (source data) ([2]; saline, ligand 0.001 uM): 0.26 and 0.252 and 0.274
- ELISA absorbance signal (source data) ([2]; saline, ligand 0.01 uM): 0.302 and 0.321 and 0.336
- ELISA absorbance signal (source data) ([2]; saline, ligand 0.1 uM): 0.327 and 0.325
- ELISA absorbance signal (source data) ([2]; saline, ligand 1 uM): 0.315 and 0.35 and 0.349
- ELISA absorbance signal (source data) ([2]; saline, ligand 10 uM): 0.341 and 0.349 and 0.35
- ELISA absorbance signal (source data) ([2]; saliva, ligand 1e-6 uM): 0.097 and 0.09 and 0.095
- ELISA absorbance signal (source data) ([2]; saliva, ligand 1e-5 uM): 0.096 and 0.098
- ELISA absorbance signal (source data) ([2]; saliva, ligand 0.0001 uM): 0.124 and 0.126 and 0.123
- ELISA absorbance signal (source data) ([2]; saliva, ligand 0.001 uM): 0.239 and 0.257 and 0.242
- ELISA absorbance signal (source data) ([2]; saliva, ligand 0.01 uM): 0.374 and 0.38 and 0.358
- ELISA absorbance signal (source data) ([2]; saliva, ligand 0.1 uM): 0.397 and 0.408 and 0.382
- ELISA absorbance signal (source data) ([2]; saliva, ligand 1 uM): 0.436 and 0.42 and 0.431
- ELISA absorbance signal (source data) ([2]; serum, ligand 1e-6 uM): 0.103 and 0.1 and 0.092
- ELISA absorbance signal (source data) ([2]; serum, ligand 1e-5 uM): 0.098 and 0.102
- ELISA absorbance signal (source data) ([2]; serum, ligand 0.0001 uM): 0.108 and 0.106 and 0.1
- ELISA absorbance signal (source data) ([2]; serum, ligand 0.001 uM): 0.141 and 0.195 and 0.127
- ELISA absorbance signal (source data) ([2]; serum, ligand 0.01 uM): 0.239 and 0.24
- ELISA absorbance signal (source data) ([2]; serum, ligand 0.1 uM): 0.319 and 0.268 and 0.325
- ELISA absorbance signal (source data) ([2]; serum, ligand 1 uM): 0.312 and 0.316 and 0.329
- ELISA absorbance signal (source data) ([2]; urine, ligand 1e-6 uM): 0.141 and 0.142 and 0.134
- ELISA absorbance signal (source data) ([2]; urine, ligand 1e-5 uM): 0.148 and 0.138
- ELISA absorbance signal (source data) ([2]; urine, ligand 0.0001 uM): 0.162 and 0.161 and 0.149
- ELISA absorbance signal (source data) ([2]; urine, ligand 0.001 uM): 0.248 and 0.231 and 0.225
- ELISA absorbance signal (source data) ([2]; urine, ligand 0.01 uM): 0.338 and 0.33 and 0.313
- ELISA absorbance signal (source data) ([2]; urine, ligand 0.1 uM): 0.356 and 0.348 and 0.341
- ELISA absorbance signal (source data) ([2]; urine, ligand 1 uM): 0.387 and 0.372 and 0.376
- cannabinoid concentration to which CB-S1 library clones respond (as low as) ([3]; clones from shuffled library CB-S1): 50 nM
- stereoisomer recognized by the evolved WIN receptor ([3]; selections conducted using a racemate): recognizes the biologically active (+)-WIN 55,212-2 stereoisomer
- EC50 [4]: 0.028 µM
- whole-cell GFP fluorescence (Fig. 3b source data) ([4]; [Ligand] 0.0001 uM): 1.509 and 1.618 and 1.562
- whole-cell GFP fluorescence (Fig. 3b source data) ([4]; [Ligand] 0.001 uM): 1.581 and 1.833 and 1.779
- whole-cell GFP fluorescence (Fig. 3b source data) ([4]; [Ligand] 0.01 uM): 2.798 and 2.733 and 2.756
- whole-cell GFP fluorescence (Fig. 3b source data) ([4]; [Ligand] 0.1 uM): 4.085 and 3.967 and 4.046
- whole-cell GFP fluorescence (Fig. 3b source data) ([4]; [Ligand] 0.5 uM): 4.169 and 4.494 and 4.506
- whole-cell GFP fluorescence (Fig. 3b source data) ([4]; [Ligand] 1 uM): 4.972 and 4.595 and 4.6223
- whole-cell GFP fluorescence (Fig. 3b source data) ([4]; [Ligand] 5 uM): 4.959 and 4.89 and 5.277
- whole-cell GFP fluorescence (Fig. 3b source data) ([4]; [Ligand] 10 uM): 5.105 and 5.0049 and 4.874
- whole-cell GFP fluorescence (Fig. 3b source data) ([4]; [Ligand] 100 uM): 4.986 and 5.066 and 4.884
- EC50 [5]: 0.072 µM
- inhibition of ΔN-HAB1 phosphatase activity relative to mock (Fig. 3a source data) ([5]; [Ligand] 0.004115 uM, replicates, 0.004115 µM): -0.3447 and 3.327 and 8.558
- inhibition of ΔN-HAB1 phosphatase activity relative to mock (Fig. 3a source data) ([5]; [Ligand] 0.012346 uM, replicates, 0.012346 µM): 13.6846 and 17.5801
- inhibition at 0.012346 µM ([5]; [Ligand] 0.012346 uM, replicates, read-out: inhibition of ΔN-HAB1 phosphatase activity relative to mock (Fig. 3a source data)): 13.7%
- inhibition of ΔN-HAB1 phosphatase activity relative to mock (Fig. 3a source data) ([5]; [Ligand] 0.037037 uM, replicates, 0.037037 µM): 27.3559 and 29.1117
- inhibition at 0.037037 µM ([5]; [Ligand] 0.037037 uM, replicates, read-out: inhibition of ΔN-HAB1 phosphatase activity relative to mock (Fig. 3a source data)): 28.7%
- inhibition of ΔN-HAB1 phosphatase activity relative to mock (Fig. 3a source data) ([5]; [Ligand] 0.111111 uM, replicates, 0.111111 µM): 63.5233 and 58.9433
- inhibition at 0.111111 µM ([5]; [Ligand] 0.111111 uM, replicates, read-out: inhibition of ΔN-HAB1 phosphatase activity relative to mock (Fig. 3a source data)): 61.1%
- inhibition of ΔN-HAB1 phosphatase activity relative to mock (Fig. 3a source data) ([5]; [Ligand] 0.333333 uM, replicates, 0.333333 µM): 83.1534 and 83.7629
- inhibition at 0.333333 µM ([5]; [Ligand] 0.333333 uM, replicates, read-out: inhibition of ΔN-HAB1 phosphatase activity relative to mock (Fig. 3a source data)): 84.4%
- inhibition of ΔN-HAB1 phosphatase activity relative to mock (Fig. 3a source data) ([5]; [Ligand] 1 uM, replicates, 1 µM): 93.2666 and 92.7582
- inhibition at 1 µM ([5]; [Ligand] 1 uM, replicates, read-out: inhibition of ΔN-HAB1 phosphatase activity relative to mock (Fig. 3a source data)): 93.4%
- inhibition of ΔN-HAB1 phosphatase activity relative to mock (Fig. 3a source data) ([5]; [Ligand] 10 uM, replicates, 10 µM): 93.1102 and 92.715
- inhibition at 10 µM ([5]; [Ligand] 10 uM, replicates, read-out: inhibition of ΔN-HAB1 phosphatase activity relative to mock (Fig. 3a source data)): 97.6%
